Several values for one entry are separate records, joined by “and”; a condition that tells them apart may be missing. Identical values can stand only once. Like-named read-outs stand apart in the source and are kept apart here.
Experiments:
[1] = test system: bovine aortic endothelial cells; experiment: Organization of endothelial cells into capillary-like networks in type I collagen gel; format: cell-based; settings: 0.1 μg/ml Halofuginone; bFGF 1 ng/ml and heparin 1 μg/ml
Protocol: Type I collagen was prepared from the tail tendons of adult Sprague Dawley rats. Briefly, the collagen fibers were solubilized by a slow stirring for 48 h at 4° C. in a sterile, 1/1000 (w/v) acetic acid solution (300 ml for 1 g of collagen). The resulting solution was filtered through a sterile triple gauze and centrifuged at 16,000 g for 1 h at 4° C. The supernatant was then extensively dialyzed against 1/10. DMEM and stored at 4° C. The collagen matrix gel was obtained by simultaneously raising the pH and ionic strength of the collagen solution. For this purpose, 7 vol of collagen solution were quickly mixed with 1 vol of 10X Minimum Essential Medium and 2 vol sodium bicarbonate (0.15 M) [R. F. Nicosa and A. Ottinetti, Lab. Invest, Vol. 63, pp. 115-122 (1990)]. Bovine aortic endothelial cells were seeded into 16 mm wells of a 24-well plate and allowed to grow for 24 h, to obtain a subconfluent monolayer. The culture medium was then removed and 0.4 ml of the cold collagen mixture described above were poured on top of the cell monolayer and allowed to polymerize for 10 min at 37° C. […] The reorganization of the endothelial cell monolayer was monitored and photographed with a Zeiss inverted phase contrast photomicroscope [K. Monesano, et al., J. Cell Biol., Vol. 97, pp. 1648-1652 (1983)].

rat aortic rings = experiment: Microvessel formation from rat aortic rings embedded in type I collagen gel; format: cell-based
Protocol: Thoracic aortas were obtained from 1- to 2-month-old SD (Sprague-Dawley) rats sacrificed by decapitation [R. F. Nicosia and A. Ottinetti, Lab. Invest, Vol. 63, pp. 115-122 (1991)]. The aortas were immediately transferred to a Petri dish with PBS. The fibro-adipose tissue around the aorta was carefully removed under a dissecting microscope, and 1 mm-long aortic rings were sectioned and extensively rinsed in PBS. Type I collagen solution (0.2 ml) was added to each 16-mm well and gellation was allowed for 15 min at 37° C. Each aorta ring was transferred and positioned to the center of the gel and another 0.4 ml of the collagen solution was carefully poured on top of the ring. […]

[2] = test system: bovine corneal endothelial cells; experiment: Incorporation of sulfate, proline, lysine and glycine into ECM (CDP and NCDP); format: cell-based; settings: eight days after seeding
Protocol: Corneal endothelial cells were seeded at a confluent density and grown as described in Example 5 above. The cells were cultured with or without Halofuginone in the presence of either Na2^35SO4 (FIG. 8A), ^3H-proline (FIG. 8B), ^14C-lysine (FIG. 8C) or ^14C-glycine (FIG. […]). Eight days after seeding, the cell layer was dissolved substantially as described in Example 5 above. The underlying ECM was then either trypsinized to determine the effect of Halofuginone on incorporation of labelled material into total protein, substantially as described in Example 5 above, or subjected to sequential digestions with collagenase and trypsin to evaluate the effect of Halofuginone on both collagenase-digestible proteins (CDP) and non-collagenase digestible proteins (NCDP).

rat mesengial cells = experiment: Sulfate and glycine incorporation into rat mesengial cell ECM; format: cell-based; settings: for inhibition at 0.05 µg/mL: 50 ng/ml Halofuginone; for inhibition at 0.2 µg/mL: 200 ng/ml Halofuginone
Protocol: Rat […] grown to confluency, 24 hours after seeding. The cells were then cultured with or without Halofuginone in the presence of either Na2^35SO4 (FIGS. 9A and 9B) or ^14C-glycine (FIGS. 9C and 9D). Eight days after sending, the cell layer was dissolved to expose the underlying ECM, washed and digested with collagenase to determine the effect of Halofuginone on CDP proteins, as shown in FIGS. 9A and 9C. The remaining material was digested with trypsin and subjected to β-scintillation counting to determine the effect of halofuginone on NCDP proteins, as shown in FIGS. 9B and 9D.

[3] = test system: corneal neovascularization; experiment: Murine corneal angiogenesis model (bFGF pellet); format: in vivo, mice; set-up: VL (maximum vessel length of the neovascularization zone): unit not given here; settings: 2 μg/mouse/day i.p. for 5 days
Protocol: A murine corneal angiogenesis model was used to evaluate the inhibitory effect of Halofuginone in vivo. The angiogenic factor bFGF was applied into a corneal pocket in a pellet made of a slow release polymer, as described below, and Halofuginone (2 μg/mouse/day) was administered i.p. for 5 consecutive days. The pellets were made of the slow-release polymer Hydron (polyhydroxyethylmethacrylate [polyHEMA], Interferon Sciences, N.J.) containing sucralfate alone, or sucralfate and bGFG. A suspension of sterile saline 10 μg recombinant bFGF plus 10 mg of sucralfate was prepared and speed vacuumed for 5 minutes. To this suspension, 10 μl of 12% Hydron in ethanol was added. The suspension was then deposited onto an autoclave sterilized, 15×15 mm piece of nylon mesh (TETKO, 3-300/50, approximate pore size 0.4×0.4 mm) and embedded between the fibers resulting in a grid of 10×10 squares. Both sides of the mesh were then covered with a thin layer of Hydron to hydrophobically stabilize the pellet during implantation. These layers were allowed to dry on a sterile petri dish for 30 minutes. Subsequently, the fibers of the mesh were pulled apart under a microscope, and about 30-40 uniformly sized pellets of 0.4×0.2×0.2 mm, containing approximately 80-100 ng bGFG per pellet, were collected. Such pellets can be stored frozen at −20° C. for several weeks without loss of bioactivity. C57B⅙ mice of about 7-9 weeks of age were anesthetized with methoxyflurane. The eyes were topically anesthetized with 0.5% proparacaine, and the globe was proposed with a jeweler's forceps. A central, intrastromal linear keratotomy of approximately 0.6 mm length was performed with a surgical blade and a lamellar micropocket was dissected towards the temporal limbus. The temporal extent of the packet was within 0.7-1.0 mm of the limbus. A single pellet was then placed on the corneal surface at the base of the pocket with jeweler's forceps, and using one arm of the forceps, the pellet was advanced toward the temporal end of the pocket. Antibiotic ointment (erythromycin) was applied once to the operated eye, not only to prevent infection, but also to decrease irritation of the irregular ocular surface. […] On post-operative day 5, mice were anesthetized with methoxyflurane, the eyes were proptosed, and the maximum vessel length (VL) of the neovascularization zone extending from the base of the limbal vascular plexus toward the pellet was measured with a linear reticule through the slit lamp. The contiguous circumferential zone of neovascularization (CH) was measured as clock hours with a 360 degree reticule. […] The area of neovascularization was calculated according to the following formula: [formula] where A is area, CH is contiguous circumferential zone of neovascularization and VL is maximal vessel length.

collagen type I = settings: in vitro; cited from earlier work
[4] = individual mice, post-operative day 5

**Q.** Which “invasion of endothelial cells into collagen gel and organization into capillary-like tubes” value [1] does the source give for `O=C(CC1NCCCC1O)Cn1cnc2cc(Br)c(Cl)cc2c1=O` (centres unmarked) [Halofuginone] here?
**A.** Its value is “completely inhibited”.

**Q.** What about the “inhibition of microvessel formation” value (rat aortic rings; 100 ng/ml Halofuginone) of the same compound?
**A.** The value was “almost complete inhibition”.

**Q.** What about the “inhibition of microvessel formation” value (rat aortic rings; 250 ng/ml Halofuginone) of the same compound?
**A.** Its value is “Complete inhibition”.

**Q.** What about the “reversibility of inhibition of microvessel formation” value (rat aortic rings; removal of the drug on day 2) of the same compound?
**A.** Its value is “reversed upon removal of the drug on day 2”.

**Q.** What about the “incorporation of sulfate, proline, lysine and glycine into both CDP and NCDP” value [2] of the same compound?
**A.** Its value is “inhibited”.

**Q.** What about the inhibition at 0.05 µg/mL (rat mesengial cells; read-out: inhibition of glycine incorporation, CDP proteins) of the same compound?
**A.** Its inhibition at 0.05 µg/mL is about 80%.

**Q.** And the inhibition at 0.05 µg/mL (rat mesengial cells; read-out: inhibition of glycine incorporation, NCDP proteins)?
**A.** Its inhibition at 0.05 µg/mL is about 80%.

**Q.** And the inhibition at 0.2 µg/mL (rat mesengial cells; read-out: inhibition of sulfate incorporation, CDP proteins)?
**A.** Its inhibition at 0.2 µg/mL is about 30%.

**Q.** What about the inhibition at 0.2 µg/mL (rat mesengial cells; read-out: inhibition of sulfate incorporation, NCDP proteins) of the same compound?
**A.** The inhibition at 0.2 µg/mL was about 70%.

**Q.** What about the “inhibition of neovascularization area vs control” value [3] of the same compound?
**A.** The value was “about 29%”.

**Q.** And the “average area of neovascularization” value ([3]; n=7, calculated from CH and VL)?
**A.** Its value is 1.90 mm^2.

**Q.** What about the “CH (contiguous circumferential zone of neovascularization)” value [3, 4] of the same compound?
**A.** The value was 3.5 clock hours and 3 clock hours (3×) and 2.5 clock hours and 4 clock hours and 1 clock hours.

**Q.** What about the “VL (maximum vessel length of the neovascularization zone)” value [3, 4] of the same compound?
**A.** The value was 1 (3×) and 1.1 and 1.2 and 0.9.

**Q.** And the “synthesis of collagen type I in bone chondrocytes” value (collagen type I)?
**A.** The value was “inhibits the synthesis of collagen type I”.

From patent publication US6420371B1, “Quinazolinone-containing pharmaceutical compositions for prevention of neovascularization and for treating malignancies” (Madasit Medical Research Services & Development Co., Ltd., priority 1997, dated 2002)
